The values below come from US7560267B2, “Apparatus and methods for on-chip monitoring of cellular reactions” (City University of Hong Kong, priority 2002, dated 2009).

Each structure is given as a SMILES string.

Experiment [1] relates to HL60 cells. In words: On-chip ATP-dependent calcium uptake in docked HL60 cells (Fluo-3 fluorescence, concentration gradient). In kind it is cell-based. As to the method: A practical embodiment of the present invention will now be described with reference to a typical experiment of the type for which the present invention is particularly suitable. In particular, in the following example an embodiment of the invention will be used to calculate the threshold ATP concentration that induces calcium uptake in HL60 mammalian cells. In this example HL60 cells (leukemia, promyelocytic) were suspended in 0.5 ml fresh RPMI 1640 with Pluronic F-127 (1% w/v final) and Fluo3-AM (2 micro molar final). After 30 minutes of incubation at room temperature, cells were re-suspended in (Hank's balanced salt solution) HBSS before loading into the apparatus. The example was carried out with an apparatus as shown in FIG. 1 and manufactured as described above. Before use, the etched quartz plate and a PDMS cover were touch-bonded and irradiated with UV light for 10 minutes in a bio-safety cabinet. After filling up micro-channels with buffer by capillary action, the apparatus was securely mounted on the stage of confocal microscope. Introduction of various fluids was implemented by using a 2-20 […] auto-pipette (HLT pipette-mate). An Axiovert 100M confocal microscope (Carl Zeiss) was used for data acquisition. Profiling data analysis mode was employed to present PMT response along a specific line in the apparatus. All fluorophores were excited by Argon (488 nm) laser. An emission filter 505-530 nm was used for Fluo-3 and AO while a 560 nm (long-pass) filter was used for ethidium bromide (EB) study. Scanning parameters were kept identical throughout all experiments for a particular fluorophore. Mammalian HL60 cells uptake extracellular calcium ions when the buffer ATP concentration is beyond a particular level. The minimum ATP concentration required to induce calcium uptake is referred as the threshold concentration. In this example of the use of an embodiment of the invention, cell docking and analyte concentration gradient were combined to determine the threshold concentration of ATP-dependent calcium uptake. The fluorescence images of the microchip under different conditions are shown in FIG. 6, with about 80 docked cells along the dam. In the “control” image and intensity measurement, the background cellular signal was due to the presence of intracellular calcium in HL60 cells. When an ATP solution (2 μM) was loaded into the CW/A vial, the cellular signal intensity was increased by 3-fold in the first zone (A to B) as compared to other zones (FIGS. 6 & 7, 2 μM images). The ATP threshold concentration can therefore be visualized as being between points B and C. After washing with buffer, the same batch of docked HL60 cells were exposed to higher ATP concentrations. Using the same LLP, the threshold concentration range shifted downstream with increasing analyte concentrations. As shown in FIGS. 6 & 7, with 5 μM ATP loaded into the apparatus, the cellular fluorescence intensity-in the first (A to B) and second (C to D) zones were enhanced. The threshold concentration range was shifted to the zone between points D & E. Repeating this process with 10 μM ATP, the Ca-related fluorescence in all cells in all zones were excited, (the signal intensity at the first zone was relatively weak due to desensitization from multiple ATP stimulations.). […] Using this equation, a relationship between liquid levels H and flow quantity Q can be derived: H=RQ+KQ2 (2) where parameters R and K depends on the geometrical profile of the channels. […]

Experiment [2] deals with HL60 cells. In words: ATP threshold concentration by conventional fluorescence measurements (13 serial dilution experiments). It counts as cell-based. To be noted: 13 individual serial dilution experiments, FIG. 8. As to the method:
FIG. 8 is a plot of ATP threshold concentration obtained by conventional techniques for comparison purposes, In this example, first of all a viability test was carried out to confirm that after docking a sufficient number of living cells were safely docked, and then a concentration gradient was made visible by a fluorophore. When the presence of a viable number of docked cells, and the creation of a concentration gradient were confirmed, the threshold concentration for calcium uptake was calculated using the apparatus of the invention, and then the results compared with an experiment using conventional serial dilution techniques. The ATP concentration gradient along the dam structure was estimated according to the above computational model. Combining the results obtained in 2 μM and 5 μM ATP stimulations, the threshold concentration was estimated within a range of 0.16±0.02 μM. The threshold concentration was also determined using conventional fluorescence measurements. […] The threshold concentration range was determined to be 0.15-0.19 μM, which is in good agreement with the result obtained using the embodiment of the present invention.

Regarding `Nc1ncnc2c1ncn2[C@@H]1O[C@H](COP(=O)(O)OP(=O)(O)OP(=O)(O)O)[C@@H](O)[C@H]1O` [ATP], the “increase of cellular signal intensity (fold)” value in the experiment on HL60 cells [1] (2 μM ATP loaded into CW/A vial, first zone (A to B) compared to other zones) is reported as 3 fold. The cellular fluorescence intensity result in the experiment with HL60 cells [1] (5 μM ATP loaded, first (A to B) and second (C to D) zones) is recorded as “enhanced”. In addition, in the experiment on HL60 cells [1] (10 μM ATP loaded, all cells in all zones), the Ca-related fluorescence entry is on record as “excited”. Besides, the “threshold concentration of ATP-dependent calcium uptake” value in the experiment on HL60 cells [1] (on-chip, HL60 cells, estimated from computational gradient model combining 2 μM and 5 μM ATP stimulations) is 0.16 ± 0.02 µM. Also, the “threshold ATP concentration” value in the experiment on HL60 cells [1] (on-chip, HL60 cells, indicated by experimental results before gradient estimation) is on record as “below 2 μM”. This molecule yielded a threshold concentration range with HL60 cells [2] of 0.15 to 0.19 µM.
